Laboratory results as given in ChEMBL document CHEMBL5465560, “Selectivity Literature for EUbOPEN Chemogenomic Library” (2024).

Assays:
[1] = biological target: T1, Ephrin type-B receptor 1 (Homo sapiens) (UniProt P54762); assay: Selectivity interaction (KinomeScan (DiscoverX)) EUB0000229b EPHB1; settings: at 10 µM
T1 sequence (whole entry): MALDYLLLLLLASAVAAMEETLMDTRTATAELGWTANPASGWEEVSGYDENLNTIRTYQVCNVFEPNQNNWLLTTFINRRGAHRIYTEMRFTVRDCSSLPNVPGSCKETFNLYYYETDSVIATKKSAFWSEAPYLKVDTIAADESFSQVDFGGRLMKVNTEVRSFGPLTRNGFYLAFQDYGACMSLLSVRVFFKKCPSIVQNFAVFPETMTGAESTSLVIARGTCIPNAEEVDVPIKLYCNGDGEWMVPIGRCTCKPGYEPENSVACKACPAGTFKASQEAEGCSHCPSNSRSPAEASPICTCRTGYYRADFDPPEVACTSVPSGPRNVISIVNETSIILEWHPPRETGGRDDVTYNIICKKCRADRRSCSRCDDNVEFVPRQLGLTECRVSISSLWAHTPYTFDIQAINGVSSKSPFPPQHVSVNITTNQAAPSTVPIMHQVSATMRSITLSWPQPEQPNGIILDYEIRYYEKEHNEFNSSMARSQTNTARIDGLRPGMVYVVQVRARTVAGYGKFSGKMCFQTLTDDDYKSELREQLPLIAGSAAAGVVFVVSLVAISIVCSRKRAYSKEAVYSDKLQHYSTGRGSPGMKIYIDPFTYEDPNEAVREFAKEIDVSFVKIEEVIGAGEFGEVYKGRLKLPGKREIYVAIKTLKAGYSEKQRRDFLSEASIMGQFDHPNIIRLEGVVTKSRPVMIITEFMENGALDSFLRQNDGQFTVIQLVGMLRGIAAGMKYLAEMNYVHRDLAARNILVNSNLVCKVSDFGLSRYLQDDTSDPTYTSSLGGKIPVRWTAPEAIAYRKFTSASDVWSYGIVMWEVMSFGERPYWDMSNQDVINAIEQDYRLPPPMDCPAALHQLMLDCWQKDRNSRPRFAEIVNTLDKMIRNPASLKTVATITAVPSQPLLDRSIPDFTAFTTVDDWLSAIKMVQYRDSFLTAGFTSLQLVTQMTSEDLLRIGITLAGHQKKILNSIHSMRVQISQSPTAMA

[2] = biological target: Dual specificity mitogen-activated protein kinase kinase 1 (Homo sapiens, UniProt Q02750); assay: Selectivity interaction (KinomeScan (DiscoverX)) EUB0000229b MAP2K1; settings: at 10 µM
[3] = biological target: T2, Atypical kinase COQ8B, mitochondrial (Homo sapiens) (UniProt Q96D53); assay: Selectivity interaction (KinomeScan (DiscoverX)) EUB0001079a ADCK4; settings: at 1 µM
T2 sequence (whole entry): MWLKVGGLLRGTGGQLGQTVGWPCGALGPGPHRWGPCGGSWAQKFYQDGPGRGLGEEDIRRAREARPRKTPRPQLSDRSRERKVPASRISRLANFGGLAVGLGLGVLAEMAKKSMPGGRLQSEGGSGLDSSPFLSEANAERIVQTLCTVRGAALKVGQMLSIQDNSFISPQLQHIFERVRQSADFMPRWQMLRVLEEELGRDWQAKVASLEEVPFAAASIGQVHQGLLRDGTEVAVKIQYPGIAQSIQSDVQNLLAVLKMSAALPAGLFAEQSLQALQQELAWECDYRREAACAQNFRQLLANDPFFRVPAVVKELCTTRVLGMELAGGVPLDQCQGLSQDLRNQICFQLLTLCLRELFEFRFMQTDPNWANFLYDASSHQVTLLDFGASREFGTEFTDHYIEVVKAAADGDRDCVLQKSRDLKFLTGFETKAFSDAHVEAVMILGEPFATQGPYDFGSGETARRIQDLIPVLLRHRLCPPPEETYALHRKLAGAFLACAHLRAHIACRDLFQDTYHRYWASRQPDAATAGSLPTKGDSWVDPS

[4] = biological target: Cyclin-dependent kinase 16 (Homo sapiens) (UniProt Q00536); assay: Selectivity interaction (KinomeScan (DiscoverX)) EUB0001079a CDK16; settings: at 1 µM
[5] = biological target: T3, Tyrosine-protein kinase Tec (Homo sapiens) (UniProt P42680); assay: Selectivity interaction (ActivX KiNativ screen (kinase selectivity in THP-1 cell lysates)) EUB0000639a TEC; type: subcellular; settings: lysate, at 0.04 µM
T3 sequence (whole entry): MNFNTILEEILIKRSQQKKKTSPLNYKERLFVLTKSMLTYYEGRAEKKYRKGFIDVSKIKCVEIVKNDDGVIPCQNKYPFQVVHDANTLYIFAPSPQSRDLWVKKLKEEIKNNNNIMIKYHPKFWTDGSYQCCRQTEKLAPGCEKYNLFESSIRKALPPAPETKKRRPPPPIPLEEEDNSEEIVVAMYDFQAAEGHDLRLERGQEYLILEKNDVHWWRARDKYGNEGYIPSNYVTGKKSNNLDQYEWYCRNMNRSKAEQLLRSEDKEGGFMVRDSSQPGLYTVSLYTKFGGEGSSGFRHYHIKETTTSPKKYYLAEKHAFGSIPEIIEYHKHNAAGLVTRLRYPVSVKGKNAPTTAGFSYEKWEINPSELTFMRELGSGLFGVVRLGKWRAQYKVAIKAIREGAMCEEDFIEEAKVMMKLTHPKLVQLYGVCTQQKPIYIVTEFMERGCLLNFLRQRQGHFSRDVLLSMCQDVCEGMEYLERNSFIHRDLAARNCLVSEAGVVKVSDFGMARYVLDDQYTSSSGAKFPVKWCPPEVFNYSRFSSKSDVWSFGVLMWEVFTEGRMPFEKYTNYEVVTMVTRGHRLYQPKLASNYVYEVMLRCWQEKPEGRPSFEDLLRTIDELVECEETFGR

[6] = biological target: Tyrosine-protein kinase ABL2 (Homo sapiens, UniProt P42684); assay: Selectivity interaction (Ambit KINOMEscan and KiNATiv profiling in Jurkat cells) EUB0000090b ABL2; type: cell-based; settings: at 1 µM
[7] = biological target: RAC-gamma serine/threonine-protein kinase (Homo sapiens, UniProt Q9Y243); assay: Selectivity interaction (Ambit KINOMEscan and KiNATiv profiling in Jurkat cells) EUB0000090b AKT3; type: cell-based; settings: at 1 µM
[8] = biological target: Cyclin-dependent kinase 8 (Homo sapiens, UniProt P49336); assay: Selectivity interaction (Ambit KINOMEscan and KiNATiv profiling in Jurkat cells) EUB0000090b CDK8; type: cell-based; settings: at 1 µM
[9] = biological target: Vascular endothelial growth factor receptor 1 (Homo sapiens) (UniProt P17948); assay: Selectivity interaction (ProQinase) EUB0000171b FLT1
Sequence of Vascular endothelial growth factor receptor 1 (Homo sapiens) (P17948 whole entry): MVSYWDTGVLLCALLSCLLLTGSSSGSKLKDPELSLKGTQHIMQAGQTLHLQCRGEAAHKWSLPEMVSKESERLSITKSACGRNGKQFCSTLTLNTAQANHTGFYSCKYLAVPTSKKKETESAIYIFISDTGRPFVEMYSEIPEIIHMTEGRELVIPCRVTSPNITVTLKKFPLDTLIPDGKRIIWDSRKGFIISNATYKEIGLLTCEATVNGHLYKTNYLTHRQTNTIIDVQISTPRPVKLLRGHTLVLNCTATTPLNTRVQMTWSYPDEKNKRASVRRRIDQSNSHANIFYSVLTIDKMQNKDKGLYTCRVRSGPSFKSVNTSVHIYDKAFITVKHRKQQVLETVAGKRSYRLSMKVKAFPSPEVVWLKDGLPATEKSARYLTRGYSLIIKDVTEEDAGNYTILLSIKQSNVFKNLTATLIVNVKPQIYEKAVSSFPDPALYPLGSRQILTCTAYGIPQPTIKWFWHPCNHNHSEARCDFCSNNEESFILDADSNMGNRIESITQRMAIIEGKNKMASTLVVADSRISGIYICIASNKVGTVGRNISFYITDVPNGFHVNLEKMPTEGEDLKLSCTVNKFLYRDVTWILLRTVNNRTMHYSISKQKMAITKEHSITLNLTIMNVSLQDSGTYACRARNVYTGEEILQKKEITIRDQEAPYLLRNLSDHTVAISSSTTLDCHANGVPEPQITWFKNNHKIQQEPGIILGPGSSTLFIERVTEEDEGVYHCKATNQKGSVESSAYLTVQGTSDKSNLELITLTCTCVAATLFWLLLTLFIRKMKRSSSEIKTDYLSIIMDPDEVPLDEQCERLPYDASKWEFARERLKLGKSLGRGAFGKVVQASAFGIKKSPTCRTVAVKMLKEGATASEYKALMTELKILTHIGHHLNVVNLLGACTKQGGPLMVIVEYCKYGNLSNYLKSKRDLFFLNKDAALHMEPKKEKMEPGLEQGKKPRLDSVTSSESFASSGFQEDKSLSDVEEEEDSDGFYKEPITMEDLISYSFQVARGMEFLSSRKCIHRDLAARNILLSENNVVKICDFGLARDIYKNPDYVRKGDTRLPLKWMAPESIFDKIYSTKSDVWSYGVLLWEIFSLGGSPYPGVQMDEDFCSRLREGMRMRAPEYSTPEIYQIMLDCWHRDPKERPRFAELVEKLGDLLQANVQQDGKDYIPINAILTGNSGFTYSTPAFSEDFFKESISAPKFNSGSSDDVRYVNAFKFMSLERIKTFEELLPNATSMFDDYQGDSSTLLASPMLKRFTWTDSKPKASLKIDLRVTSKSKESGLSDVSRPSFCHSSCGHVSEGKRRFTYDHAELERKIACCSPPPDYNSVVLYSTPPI

Sequence of Tyrosine-protein kinase ABL2 (P42684 whole entry): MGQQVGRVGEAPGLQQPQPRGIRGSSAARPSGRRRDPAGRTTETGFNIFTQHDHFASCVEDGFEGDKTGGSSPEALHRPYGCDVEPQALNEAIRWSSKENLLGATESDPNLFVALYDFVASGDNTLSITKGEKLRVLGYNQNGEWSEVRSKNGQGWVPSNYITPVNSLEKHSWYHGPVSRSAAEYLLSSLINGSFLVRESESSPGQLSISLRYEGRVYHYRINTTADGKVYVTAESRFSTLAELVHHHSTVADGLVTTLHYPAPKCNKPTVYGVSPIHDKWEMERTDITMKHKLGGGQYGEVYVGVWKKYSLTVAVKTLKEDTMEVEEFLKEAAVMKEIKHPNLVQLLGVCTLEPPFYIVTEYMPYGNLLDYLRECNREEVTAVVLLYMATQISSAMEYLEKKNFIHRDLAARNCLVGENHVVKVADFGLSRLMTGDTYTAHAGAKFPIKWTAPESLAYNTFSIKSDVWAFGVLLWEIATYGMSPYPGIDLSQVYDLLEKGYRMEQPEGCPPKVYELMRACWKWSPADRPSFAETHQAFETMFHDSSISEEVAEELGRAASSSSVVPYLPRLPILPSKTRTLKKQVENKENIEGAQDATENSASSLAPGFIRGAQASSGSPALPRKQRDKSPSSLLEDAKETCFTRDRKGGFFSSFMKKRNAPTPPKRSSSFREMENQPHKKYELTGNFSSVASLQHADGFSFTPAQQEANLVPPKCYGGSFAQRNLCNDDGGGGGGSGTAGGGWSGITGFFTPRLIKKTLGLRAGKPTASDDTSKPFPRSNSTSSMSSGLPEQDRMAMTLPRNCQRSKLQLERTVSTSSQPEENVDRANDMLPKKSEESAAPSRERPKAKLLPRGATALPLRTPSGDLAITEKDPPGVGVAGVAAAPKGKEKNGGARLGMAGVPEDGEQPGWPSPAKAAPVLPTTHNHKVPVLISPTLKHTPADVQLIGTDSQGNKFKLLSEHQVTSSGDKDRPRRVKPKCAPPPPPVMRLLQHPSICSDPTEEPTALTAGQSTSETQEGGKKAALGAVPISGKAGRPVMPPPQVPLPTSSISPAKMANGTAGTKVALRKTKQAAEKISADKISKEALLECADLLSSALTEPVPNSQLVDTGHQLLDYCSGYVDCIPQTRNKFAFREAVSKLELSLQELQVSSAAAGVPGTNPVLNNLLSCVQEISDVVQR
Sequence of Cyclin-dependent kinase 8 (P49336 whole entry): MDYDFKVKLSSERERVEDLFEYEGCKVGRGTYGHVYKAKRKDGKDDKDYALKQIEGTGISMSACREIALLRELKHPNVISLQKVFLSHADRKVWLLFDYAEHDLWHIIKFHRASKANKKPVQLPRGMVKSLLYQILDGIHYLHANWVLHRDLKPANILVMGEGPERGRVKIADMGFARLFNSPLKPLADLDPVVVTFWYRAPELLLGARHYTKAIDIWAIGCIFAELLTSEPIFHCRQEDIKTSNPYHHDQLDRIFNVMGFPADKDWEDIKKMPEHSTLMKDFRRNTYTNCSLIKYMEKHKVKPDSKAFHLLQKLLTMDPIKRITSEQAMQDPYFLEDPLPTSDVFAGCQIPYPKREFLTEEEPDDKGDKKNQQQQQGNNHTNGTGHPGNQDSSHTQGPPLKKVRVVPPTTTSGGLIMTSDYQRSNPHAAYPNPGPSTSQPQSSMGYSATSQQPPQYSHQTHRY
Sequence of RAC-gamma serine/threonine-protein kinase (Q9Y243 whole entry): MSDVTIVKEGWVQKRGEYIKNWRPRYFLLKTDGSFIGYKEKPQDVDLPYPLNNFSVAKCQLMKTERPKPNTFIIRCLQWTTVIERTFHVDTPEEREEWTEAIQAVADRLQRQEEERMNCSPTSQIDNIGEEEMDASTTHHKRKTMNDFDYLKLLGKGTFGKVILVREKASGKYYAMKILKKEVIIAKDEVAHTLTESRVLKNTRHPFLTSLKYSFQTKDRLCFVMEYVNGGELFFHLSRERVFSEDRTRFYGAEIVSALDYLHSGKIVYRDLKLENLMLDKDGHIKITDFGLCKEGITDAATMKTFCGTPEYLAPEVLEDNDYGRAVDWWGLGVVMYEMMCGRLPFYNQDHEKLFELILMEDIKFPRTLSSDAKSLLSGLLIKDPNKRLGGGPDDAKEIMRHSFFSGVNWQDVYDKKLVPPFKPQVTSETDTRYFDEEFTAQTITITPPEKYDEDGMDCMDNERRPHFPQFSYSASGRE
Sequence of Dual specificity mitogen-activated protein kinase kinase 1 (Q02750 whole entry): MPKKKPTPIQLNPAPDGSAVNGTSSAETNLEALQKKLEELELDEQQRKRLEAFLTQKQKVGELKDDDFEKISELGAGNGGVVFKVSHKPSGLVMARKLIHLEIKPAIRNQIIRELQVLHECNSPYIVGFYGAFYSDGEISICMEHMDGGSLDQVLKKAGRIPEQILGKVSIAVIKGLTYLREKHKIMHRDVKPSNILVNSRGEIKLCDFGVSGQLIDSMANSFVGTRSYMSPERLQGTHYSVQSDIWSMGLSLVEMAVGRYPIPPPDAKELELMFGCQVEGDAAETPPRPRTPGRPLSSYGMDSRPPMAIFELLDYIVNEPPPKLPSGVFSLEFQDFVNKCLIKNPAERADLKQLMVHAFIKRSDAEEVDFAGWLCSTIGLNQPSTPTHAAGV
Sequence of Cyclin-dependent kinase 16 (Homo sapiens) (Q00536 whole entry): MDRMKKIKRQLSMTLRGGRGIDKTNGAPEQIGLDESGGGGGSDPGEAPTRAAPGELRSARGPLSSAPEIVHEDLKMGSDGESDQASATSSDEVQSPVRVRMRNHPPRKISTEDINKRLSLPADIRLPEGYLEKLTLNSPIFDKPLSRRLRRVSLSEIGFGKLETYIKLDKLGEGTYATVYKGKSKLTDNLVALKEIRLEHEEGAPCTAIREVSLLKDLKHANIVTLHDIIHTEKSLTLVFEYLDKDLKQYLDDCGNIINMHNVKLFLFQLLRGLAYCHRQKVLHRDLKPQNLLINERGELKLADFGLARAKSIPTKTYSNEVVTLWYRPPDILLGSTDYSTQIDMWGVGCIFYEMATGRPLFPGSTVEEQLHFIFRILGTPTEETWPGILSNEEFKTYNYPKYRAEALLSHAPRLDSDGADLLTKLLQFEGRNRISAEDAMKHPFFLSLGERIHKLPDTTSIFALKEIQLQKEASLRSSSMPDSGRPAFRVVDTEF

SMILES: COc1cc(N(C)c2ccnc3ccc(C(F)(F)F)cc23)cc(OC)c1OC
- % binding [1]: 97%
- % binding [2]: 68%

SMILES: Nc1cnc(N2CCc3cc(S(=O)(=O)Nc4c(F)cc(Cl)cc4F)cc(N4CCCC4=O)c32)nc1 [TP-020n]
- % of control [3]: 100%
- % of control [4]: 98%

SMILES: CC[C@@H]1[C@H](F)C(=O)N[C@@H]1COc1nccc2cc(C(N)=O)c(OC)cc12 [ZIMLOVISERTIB]
- % of inhibition [5]: -59.8%

SMILES: CN(C)C/C=C/C(=O)Nc1ccc(C(=O)N2CCCC(Nc3ncc(Cl)c(-c4c[nH]c5ccccc45)n3)C2)cc1 (stereo not given)
- % of control [6]: 92%
- % of control [7]: 96%
- % of control [8]: 100%

SMILES: C=CC(=O)Nc1cccc(C(=O)Nc2ccc(Nc3cc(-c4[nH]c(SC)nc4C)ccn3)cc2)c1
- % of control ([9]; at 1 µM): 84%
- % of control ([9]; at 5 µM): 66%
